According to patent publication US6852735B1, “Siastatin B derivatives having a glycosidase inhibitory activity and processes for producing the same” (Zaidan Hojin Biseibutsu Kagaku Kenkyu Kai, priority 1998, dated 2005):

Columns and labels:
[1] = target: α-D-glucosidase (from yeast); test: α-glucosidase inhibition (Test Example 4); assay type: biochemical; conditions: for 50% inhibiory concentration (IC50) Enzyme H: α-D-glucosidase from yeast, substrate p-nitrophenyl-α-D-glucoside; for inhibition of α-D-glucosidase, in words: summary of Table 1
Method: (§1) Thus, 0.5 mL of 0.025M citrate-phosphate buffer (pH 4.0), 0.1 mL of the same buffer containing 10 mM p-nitro-phenyl-N-acetyl-α-D-galactosaminide dissolved therein, and 0.1 mL of either water or an aqueous solution containing as the test compound any one of the compounds of the formulae (I), (V) and (X) according to this invention were mixed with each other and pre-incubated in a 96-wells titer plate at 37° C. for 10 minutes. After the completion of the pre-incubation, to the pre-incubated mixture was added 0.01 mL of 0.025 M citrate-phosphate buffer containing α-N-acetyl-galactosaminidase originated from chicken liver (a product of Sigma Company) which was dissolved in said buffer as a glycosidase to be tested. Thereafter, the enzymatic reaction was conducted at 37° C. for 30 minutes.
(§2) After the enzymatic reaction, to the reaction solution was added 1.0 mL of 0.3M glycine—sodium hydroxide buffer (pH 10.5), in order to terminate the enzymatic reaction. Thereafter, the absorbance [designated as value (a)] of light at 405 nm of the resulting reaction solution was measured. Concurrently, measurement was made of the absorbance [designated as value (b)] at 405 nm of the reaction solution as obtained in the control test where the enzymatic reaction was conducted without addition of the test compound. Further, measurements were made of the absorbance [designated as values (a′)] and the absorbance [[designated as values (b′)] at 405 nm of the solutions as obtained in the blank test and the control test, respectively, where the enzymatic reaction was not conducted in the assay test. The rate of inhibition to […] was calculated by the equation: [1-(a-a′)/(b-b′)]×100.
(§3) The test results obtained are summarized as IC50 value in Table 1 below.
This Test Example is a test example for determining the α-glucosidase or β-glucosidase-inhibitory activity of the compound of the formula (I), (V) or (X) according to this invention.
The evaluation of the β-glucosidase-inhibitory activity was conducted according to a modification of the method described in the “Agricultural and Biological Chemistry”, 26, p.203 (1962).
Namely, the test was conducted in the same manner as the test for the enzyme-inhibitory activity described in Test Example 1, but with using α-glucosidase originated from yeast or β-glucosidase originated from almond (both enzymes are products of Sigma Company) as the glycosidase enzyme, and with using p-nitro-phenyl-α-D-glucoside or p-nitrophenyl-β-D-glucoside as the substrate. Furthermore, absorbances of light were measured in the same manner as in Test Example 1, and IC50 values of the test compound capable of giving the 50% inhibition to the enzyme were calculated.

[2] = target: T1, β-D-galactosidase (from Aspergillus niger) (Aspergillus niger, UniProt P29853); test: β-galactosidase inhibition (Test Example 3); assay type: biochemical; conditions: for inhibition of β-D-galactosidase, in words: summary of Table 1
T1 construct: originated from Aspergillus niger; purchased Sigma Company; host or cells: Aspergillus niger
T1 sequence (P29853 20-1006): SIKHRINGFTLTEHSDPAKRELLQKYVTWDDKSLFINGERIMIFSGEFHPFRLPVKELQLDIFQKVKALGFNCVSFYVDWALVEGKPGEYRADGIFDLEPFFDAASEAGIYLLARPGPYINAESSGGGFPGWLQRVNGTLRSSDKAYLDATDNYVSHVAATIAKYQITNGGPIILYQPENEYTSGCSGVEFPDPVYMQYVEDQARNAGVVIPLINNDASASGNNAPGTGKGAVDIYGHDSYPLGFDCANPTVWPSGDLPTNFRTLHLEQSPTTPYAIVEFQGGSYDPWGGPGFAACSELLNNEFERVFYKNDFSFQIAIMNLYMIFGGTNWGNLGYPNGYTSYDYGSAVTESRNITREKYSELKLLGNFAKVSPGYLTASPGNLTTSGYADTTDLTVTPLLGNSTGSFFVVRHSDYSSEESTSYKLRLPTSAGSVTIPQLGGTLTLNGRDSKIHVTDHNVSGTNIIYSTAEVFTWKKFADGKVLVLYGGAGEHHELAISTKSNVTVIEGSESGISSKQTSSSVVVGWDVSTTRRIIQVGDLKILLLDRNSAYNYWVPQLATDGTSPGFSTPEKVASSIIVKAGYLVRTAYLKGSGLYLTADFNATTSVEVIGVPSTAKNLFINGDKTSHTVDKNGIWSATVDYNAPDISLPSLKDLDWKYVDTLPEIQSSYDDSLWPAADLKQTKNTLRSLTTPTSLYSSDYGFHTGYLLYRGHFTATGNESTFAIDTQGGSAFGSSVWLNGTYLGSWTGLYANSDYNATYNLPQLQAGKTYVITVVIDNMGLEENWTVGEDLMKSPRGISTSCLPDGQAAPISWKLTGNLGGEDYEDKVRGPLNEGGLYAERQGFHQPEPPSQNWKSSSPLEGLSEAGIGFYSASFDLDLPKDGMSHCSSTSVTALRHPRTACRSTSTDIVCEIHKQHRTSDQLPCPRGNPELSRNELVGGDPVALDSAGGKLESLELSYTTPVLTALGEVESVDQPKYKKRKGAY
Method: as §1, §2, §3
This Test Example is a test example for determining the α-galactosidase or β-galactosidase-inhibitory activity of the compound of the formula (I), (V) or (X) according to this invention.
The evaluation of the α-galactosidase or β-galactosidase-inhibitory activity was conducted according to a modification of the method described in the “Journal of Biological Chemistry”, 240, p.2468 (1965).
Namely, the test was conducted in the same manner as the test for the enzyme-inhibitory activity described in Test Example 1, but with using α-galactosidase or β-galactosidase (products of by Sigma Company) originated from Aspergillus niger, as the glycosidase enzyme, and with using p-nitrophenyl-α-D-galactoside and p-nitrophenyl-β-D-galactoside as the substrate. Furthermore, absorbances of light at 405 nm were measured in the same manner as in Test Example 1. IC50 values of the test compound capable of giving the 50% inhibition to the enzymes were calculated.

SMILES: O=C(N[C@H]1NC[C@H](CO)[C@H](O)[C@@H]1O)C(F)(F)F [Formula (I), 6-deacetamido-3-decarboxy-3-hydroxymethyl-6-trifluoroacetamido-siastain B]
- 50% inhibiory concentration (IC50) Enzyme H [1]: >100 µg/mL
- IC50 [2]: 0.194 µM
- inhibition of β-D-galactosidase, in words [2]: inhibit strongly

SMILES: CC(=O)NC1NCC(CO)C(O)C1O (stereo not drawn) [Formula (V), 3-decarboxy-4-epi-3-hydroxymethyl-siastain B]
- inhibition of α-D-glucosidase, in words [1]: inhibit strongly
- 50% inhibiory concentration (IC50) Enzyme H [1]: 7 µg/mL
- IC50 [2]: > 490 µM

SMILES: O=C(N[C@H]1NC[C@H](CO)[C@@H](O)[C@@H]1O)C(F)(F)F [Formula (X), 6-deacetamido-3-decarboxy-4-epi-3-hydroxymethyl-6-trifluoroacetamido-siastain B]
- inhibition of α-D-glucosidase, in words [1]: inhibit strongly
- 50% inhibiory concentration (IC50) Enzyme H [1]: 0.06 µg/mL
- IC50 [2]: 232 µM
- inhibition of β-D-galactosidase, in words [2]: inhibit strongly
